Holding throughout (assay type): cell-based
The test system of assay [1] is Geotrichum citri-aurantii. Description: Liquid fungal growth assay in 96-well plates, Geotrichum citri-aurantii. Particulars: each component 2.23 ppm final, combinations 1:1 w/w. How it is done: For each 96 well plate, three separate additions were made to each well. First, 100 μl of potato dextrose broth w/100 ppm chloramphenicol was added. Then 25 μl of each sample (lipopeptides, natamycin, or combo from dilution plate) was supplemented. Finally, 50 μl of DI H2O was added to the blank plate (the plate intended to be left blank for an OD reference) OR 50 μl of 10^5 fungal inoculum was added to each well in its respective plate(s). […] The plates were then covered with lids and placed at 20° C. for 3 days of incubation. After the incubation period, the growth of each well in each plate was rated by optical density at 600 nm using a PerkinElmer Victor plate-reader using the setting “MIC Settings @600 (0.1 s)” that can be found in the Wallac® Victor® software. The results were also roughly assessed visually as cloudy wells (partial growth) appearing in the dilution series where the sample fell off in activity. After an OD was obtained for each well, the relative growth was determined by the following calculation: [(Treatment w/Bacteria)-(Treatment w/o Bacteria)/(Diluent Control w/Bacteria)-(Diluent Control w/o Bacteria)]×100. The positive control wells for bacterial growth were considered acceptable if the average and standard deviation of the OD readings at 600 nm were well above the range of the non-inoculated OD reference wells. […]

Assay [2] concerns Saccharomyces cerevisiae. Description: Liquid fungal growth assay in 96-well plates (YPD), Saccharomyces cerevisiae. Particulars: combinations 1:1 w/w.
In assay [3] the test system is Penicillium expansum. Description: Liquid fungal growth assay in 96-well plates, Penicillium expansum. How it is done:
The effect of (i) natamycin (Haorui Pharma-Chem. Inc.), (ii) a crude extract of lipopeptides from Bacillus subtilis QST713 (prepared as described in Example 1), and (iii) a combination of natamycin and a crude extract of lipopeptides on Penicillium expansum was investigated. A liquid fungal growth assay was performed in 96-well plates to determine whether the combination of lipopeptides and natamycin is synergistic in inhibiting fungal growth. All procedures were conducted aseptically.
For each 96 well plate, three separate additions were made to each well. First, 100 μl of potato dextrose broth w/100 ppm chloramphenicol was added. […]
After the incubation period, the growth of each well in each plate was rated by optical density at 600 nm using a PerkinElmer Victor plate-reader using the setting “MIC Settings @600 (0.1 s)” that can be found in the Wallac® Victor® software. The results were also roughly assessed visually as cloudy wells (partial growth) appearing in the dilution series where the sample fell off in activity.
After an OD was obtained for each well, the relative growth was determined by the following calculation: [(Treatment w/Bacteria)−(Treatment w/o Bacteria)/(Diluent Control w/Bacteria)−(Diluent Control w/o Bacteria)]×100. […]
Synergy was then determined by Gowing's Equation, set forth above. […]

Assay [4] concerns Geotrichum candidum. Kind of assay: Liquid fungal growth assay in 96-well plates, Geotrichum candidum. Particulars: combinations 1:1 w/w. How it is done: For each 96 well plate, three separate additions were made to each well. First, 100 μl of potato dextrose broth w/100 ppm chloramphenicol was added. […] Finally, 50 μl of DI H2O was added to the blank plate (the plate intended to be left blank for an OD reference) OR 50 μl of 10^5 fungal inoculum was added to each well in its respective plate(s). […] The plates were then covered with lids and placed at 20° C. for 3 days of incubation. After the incubation period, the growth of each well in each plate was rated by optical density at 600 nm using a PerkinElmer Victor plate-reader using the setting “MIC Settings @600 (0.1 s)” that can be found in the Wallac® Victor® software. The results were also roughly assessed visually as cloudy wells (partial growth) appearing in the dilution series where the sample fell off in activity. After an OD was obtained for each well, the relative growth was determined by the following calculation: [(Treatment w/Bacteria)-(Treatment w/o Bacteria)/(Diluent Control w/Bacteria)-(Diluent Control w/o Bacteria)]×100. The positive control wells for bacterial growth were considered acceptable if the average and standard deviation of the OD readings at 600 nm were well above the range of the non-inoculated OD reference wells. […] Synergy was then determined by Gowing's Equation, set forth above. […]

Assay [5] concerns Saccharomyces cerevisiae wild-type strain BY4742. Kind of assay: Saccharomyces cerevisiae liquid culture growth (OD vs untreated control), Example 1. Particulars: 16 hours at 30° C. On the procedure:
A combination of lipopeptides and natamycin was tested for efficacy against Saccharomyces cerevisiae, which is generally recognized as a model organism for testing activity against fungi and which is closely related to Candida. See Smits, G J, et al., “Stress Tolerance in Fungi—To Kill a Spoilage Yeast,” Current Opin Biotechnol., 16(2): 225-30, (2005) and Castrillo, J I, et al., “Yeast as a Touchstone in Post-Genomic Research: Strategies for Integrative Analysis in Functional Genomics,” J Biochem Mol Biol., 37(1): 93-106, (2004).
Saccharomyces cerevisiae wild-type strain BY4742 was grown in liquid YPD in the presence of: (1) natamycin (Haorui Pharma-Chem Inc), (2) the above-described lipopeptide extract, (3) natamycin+lipopeptide extract, and 4) no lipopeptides or natamycin (control). The initial concentration of natamycin before being added to the liquid culture was 1 ppm and the initial concentration of lipopeptide extract was 15 ppm. Final concentration of natamycin in the liquid culture was 0.08 ppm and final concentration of lipopeptide extract was 1.12 ppm, such that the weight to weight ratio of natamycin to lipopeptide in the sample containing both was 1:14. […]
Gowing's Equation was applied, as follows, to determine synergism of lipopeptides with natamycin. […] Thus, X and Y are calculated by subtracting the amount of growth on a treated plate from 100, as shown below. […]

SMILES strings stand for the structures.

Consider `C[C@@H]1C/C=C/C=C/C=C/C=C/[C@H](O[C@@H]2O[C@H](C)[C@@H](O)[C@H](N)[C@@H]2O)C[C@@H]2O[C@](O)(C[C@@H](O)C[C@H]3O[C@@H]3/C=C/C(=O)O1)C[C@H](O)[C@H]2C(=O)O` [Natamycin, natamycin], for which the “% of Growth of the Given Compound(s) at 2.23 ppm” value in assay [1] (natamycin series) amounted to 57.4%; in assay [3] (each component 2.23 ppm final, combinations 1:1 w/w), 35.38%; in assay [4] (natamycin series, each component 2.23 ppm final), 110.4%. For the same compound, the “% of Growth of the Given Compound(s) at 1.12 ppm” value in assay [2] (natamycin series, each component 1.12 ppm final, 30° C. overnight) was 97.4%. In assay [3] (1.1 ppm final of each component, 3 days at 20° C., OD 600 nm), the “Percent Growth” value stood at 102%. Moreover, the inhibition (as a rule, the percentage by which the read-out fell short of the control) at 0.08 ppm in assay [5] (Saccharomyces cerevisiae, natamycin 0.08 ppm, lipopeptide extract 1.12 ppm final, read-out: growth inhibition (X, Y, Eob = 100 − growth)) is 22.1%. Further, in assay [5] (natamycin 0.08 ppm final, lipopeptide extract 1.12 ppm final (1:14 w/w), liquid YPD), the “growth (OD) normalized to untreated control set at 100%” value came out at 77.89%.
On to `C[C@@H]1[C@H](O)[C@@H](C)/C=C/C=C/CC/C=C/C=C/C=C/C=C/C(O[C@H]2O[C@H](C)[C@@H](O)[C@H](N)[C@@H]2O)CC2O[C@](O)(CC(O)C(O)CCC(O)CC(O)CC(O)CC(=O)O[C@H]1C)CC(O)C2C(=O)O` (stereo partly shown) [Nystatin, nystatin], for which the “% of Growth of the Given Compound(s) at 2.23 ppm” value in assay [1] (nystatin series) stood at 30.5%. Besides, in assay [2] (nystatin series, each component 0.56 ppm final), the “% of Growth of the Given Compound(s) at 0.56 ppm” value came to 96.5%. Besides, the “% of Growth of the Given Compound(s) at 1.12 ppm” value in assay [4] (nystatin series, each component 1.12 ppm final) is recorded as 96.2%.

Values taken from US8623813B2, “Synergistic combinations of polyene fungicides and non-ribosomal peptides and related methods of use” (priority 2011, dated 2014).
